Test results published in patent publication US10294202B2, “Pyrrolidinones as herbicides” (FMC Corporation, priority 2013, dated 2019).

Experiments:
[1] = test system: sedge, umbrella; test: Test F flood (paddy) test; assay type: in vivo, Cyperus difformis; conditions: 21 d, scale 0-100
From the text: (§1) Three plastic pots (ca. 16-cm diameter) per rate were partially filled with sterilized Tama silt loam soil comprising a 35:50:15 ratio of sand, silt and clay and 2.6% organic matter. Separate plantings for each of the three pots were as follows. Seeds from the U.S. of monochoria (Monochoria vaginalis), sedge, umbrella (small-flower umbrella sedge, Cyperus difformis), bulrush, […] bulrush, Scirpus juncoides), and […] (purple […] coccinea), were planted into one 16-cm pot for each rate. Seeds from the U.S. of flatsedge, rice (rice flatsedge, Cyperus iria), sprangletop, Brdd. (bearded sprangletop, Leptochloa fascicularis), one stand of 9 or 10 water seeded rice seedlings (Rice, W.S. Jap, Oryza sativa cv. 'Japonica-[…]' or Rice, W.S. Ind, 'Indica'), and two stands of 3 or 4 seedlings of rice, transplanted (transplanted rice, Oryza sativa cv. 'Japonica-[…]') were planted into one 16-cm pot for each rate. Seeds from the U.S. of barnyardgrass (Echinochloa crus-galli), […] (common […], Alisma plantago-aquatica), and watergrass, late (late watergrass, Echinochloa oryzicola) were planted into one 16-cm pot for each rate. Plantings were sequential so that crop and weed species were at the 2.0 to 2.5-leaf stage at time of treatment. Potted plants were grown in a greenhouse with day/night temperature settings of 30/27° C., and supplemental balanced lighting was provided to maintain a 16-h photoperiod. Test pots were maintained in the greenhouse until test completion. At time of treatment, test pots were flooded to 3 cm above the soil surface, treated by application of test compounds directly to the paddy water, and then maintained at that water depth for the duration of the test. Effects of treatments on rice and weeds were visually evaluated by comparison to untreated controls after 21 d. Plant response ratings, summarized in Table F, are based on a scale of 0 to 100 where 0 is no effect and 100 is complete control. A dash (-) response means no test result.

[2] = test system: flatsedge, rice; test: Test F flood (paddy) test; assay type: in vivo, Cyperus iria; conditions: 21 d, scale 0-100
From the text: as §1

[3] = test system: redstem; test: Test F flood (paddy) test; assay type: in vivo, Ammannia coccinea; conditions: 21 d, scale 0-100
From the text: as §1

[4] = test system: bulrush, hardstem; test: Test F flood (paddy) test; assay type: in vivo, Scirpus juncoides; conditions: 21 d, scale 0-100
From the text: as §1, with “Potted plants were grown in a greenhouse with day/night temperature settings of 30/27° C., and supplemental balanced lighting was provided to maintain a 16-h photoperiod. Test pots were maintained in the greenhouse until test completion. At time of treatment, test pots were flooded to 3 cm above the soil surface, treated by application of test compounds directly to the paddy water, and then maintained at that water depth for the duration of the test.” left out, “Plant response ratings, summarized in Table F, are based on a scale of 0 to 100 where 0 is no effect and 100 is complete control. A dash (-) response means no test result.” left out

[5] = test system: Rice, W.S. Jap; test: Test F flood (paddy) test; assay type: in vivo, Oryza sativa cv. Japonica—M202; conditions: 21 d, scale 0-100
From the text: as §1

[6] = test system: cocklebur; test: Test E preemergence herbicide test; assay type: in vivo, Xanthium strumarium; set-up: key: 0 = no effect, 100 = complete control
From the text: (§2) Seeds of plant species selected from corn (Zea mays), soybean (Glycine max), velvetleaf (Abutilon theophrasti), lambsquarters (Chenopodium album), wild poinsettia (Euphorbia heterophylla), pigweed, palmer (palmer pigweed, Amaranthus palmeri), waterhemp (common waterhemp, Amaranthus rudis), surinam grass (Brachiaria decumbens), crabgrass, large (large crabgrass, Digitaria sanguinalis), crabgrass, Brazil (Brazilian crabgrass, Digitaria horizontalis), panicum, fall (fall panicum, Panicum dichotomiflorum), foxtail, giant (giant foxtail, Setaria faberii), foxtail, green (green foxtail, Setaria viridis), goosegrass (Eleusine indica), johnsongrass (Sorghum halepense), ragweed (common ragweed, Ambrosia elatior), barnyardgrass (Echinochloa crus-galli), sandbur (southern sandbur, Cenchrus echinatus), arrowleaf […] rhombifolia), ryegrass, Italian (Italian ryegrass, Lolium multiflorum), dayflower, VA (Virginia dayflower, Commelina virginica), field bindweed (Convolvulus arvensis), morningglory (Ipomoea coccinea), nightshade (eastern black nightshade, Solanum ptycanthum), kochia (Kochia scoparia), nutsedge, yellow (yellow nutsedge, Cyperus esculentus), cocklebur (common cocklebur, Xanthium strumarium), smartweed (ladysthumb smartweed, Polygonum Persicaria) and beggarticks (hairy beggarticks, Bidens pilosa), were planted into a silt loam soil and treated preemergence with test chemicals formulated in a non-phytotoxic solvent mixture which included a surfactant. Treated plants and controls were maintained in a greenhouse for 21 days, after which time all species were compared to controls and visually evaluated. Plant response ratings, summarized in Table E, are based on a scale of 0 to 100 where 0 is no effect and 100 is complete control. A dash (-) response means no test result.

[7] = test system: pigweed, palmer; test: Test E preemergence herbicide test; assay type: in vivo, Amaranthus palmeri; set-up: key: 0 = no effect, 100 = complete control
From the text: as §2

[8] = test system: windgrass; test: Test C postemergence herbicide test; assay type: in vivo, Apera spica-venti
From the text: (§3) At the same time, plants selected from these crop and weed species and also barley (winter barley, Hordeum vulgare), […]), chickweed (common chickweed, Stellaria media), deadnettle (henbit deadnettle, Lamium amplexicaule), and canarygrass (littleseed canarygrass, Phalaris minor) were planted in pots containing Redi-Earth® planting medium (Scotts Company, 14111 Scottslawn Road, Marysville, Ohio 43041) comprising spaghnum peat moss, vermiculite, wetting agent and starter nutrients and treated with postemergence applications of test chemicals formulated in the same manner. Plants ranged in height from 2 to 18 cm (1- to 4-leaf stage) for postemergence treatments. Treated plants and controls were maintained in a greenhouse for 13 to 15 days, after which time all species were compared to controls and visually evaluated. Plant response ratings, summarized in Table C, are based on a scale of 0 to 100 where 0 is no effect and 100 is complete control. A dash (-) response means no test result.

[9] = test system: deadnettle; test: Test C postemergence herbicide test; assay type: in vivo, Lamium amplexicaule
From the text: as §3

[10] = test system: canarygrass; test: Test C postemergence herbicide test; assay type: in vivo, Phalaris minor
From the text: as §3

[11] = test system: Rice, W.S. Ind; test: Test F flood (paddy) test; assay type: in vivo, Oryza sativa Indica; conditions: 21 d, scale 0-100
From the text: as §1

[12] = test system: waterplantain; test: Test F flood (paddy) test; assay type: in vivo, Alisma plantago-aquatica; conditions: 21 d, scale 0-100
From the text: as §1

[13] = 31 g ai/ha, scale 0 (no effect) to 100 (complete control)
[14] = 62 g ai/ha, scale 0 to 100 (0 no effect, 100 complete control)
[15] = 125 g ai/ha, scale 0 to 100 (0 no effect, 100 complete control)
[16] = 250 g ai/ha, scale 0 to 100 (0 no effect, 100 complete control)

Structure (SMILES): O=C1NCC(c2cccc(C(F)(F)F)c2)C1C(=O)Nc1ccccc1F (racemic) [Compound 3]
- Plant response rating, Sedge, Umbrella ([1]; 250 g ai/ha): 0
- Plant response rating, Sedge, Umbrella ([1]; 500 g ai/ha): 0
- Plant response rating, Flatsedge, Rice ([2]; 250 g ai/ha): 0
- Plant response rating, Flatsedge, Rice ([2]; 500 g ai/ha): 20
- Plant response rating, Redstem ([3]; 250 g ai/ha): 0
- Plant response rating, Redstem ([3]; 500 g ai/ha): 20
- Plant response rating, Bulrush, Hardstem ([4]; 250 g ai/ha): 0
- Plant response rating, Bulrush, Hardstem ([4]; 500 g ai/ha): 30
- Plant response rating, Rice, W.S. Jap ([5]; 250 g ai/ha): 0
- Plant response rating, Rice, W.S. Jap ([5]; 500 g ai/ha): 10

Structure (SMILES): O=C1NCC(c2ccc(F)cc2)C1C(=O)Nc1ccccc1F (racemic) [Compound 16]
- Plant response rating, Cocklebur ([6]; 16 g ai/ha): 0
- Plant response rating, Cocklebur ([6]; 31 g ai/ha): 0
- Plant response rating, Cocklebur ([6]; 62 g ai/ha): 0
- Plant response rating, Cocklebur ([6]; 125 g ai/ha): 0
- Plant response rating, Cocklebur ([6]; 250 g ai/ha): 0
- Plant response rating, Pigweed, Palmer ([7]; 16 g ai/ha): 0
- Plant response rating, Pigweed, Palmer ([7]; 31 g ai/ha): 0
- Plant response rating, Pigweed, Palmer ([7]; 62 g ai/ha): 0
- Plant response rating, Pigweed, Palmer ([7]; 125 g ai/ha): 0
- Plant response rating, Pigweed, Palmer ([7]; 250 g ai/ha): 0

Structure (SMILES): O=C1NCC(c2cc(F)c(F)c(F)c2)C1C(=O)Nc1ccccc1F (racemic) [Compound 34]
- Plant response rating, Windgrass [8, 13]: 0
- Plant response rating, Windgrass [8, 14]: 0
- Plant response rating, Windgrass [8, 15]: 0
- Plant response rating, Windgrass [8, 16]: 5
- Plant response rating, Deadnettle [9, 13]: 0
- Plant response rating, Deadnettle [9, 14]: 0
- Plant response rating, Deadnettle [9, 15]: 0
- Plant response rating, Deadnettle [9, 16]: 0
- Plant response rating, Canarygrass [10, 13]: 0
- Plant response rating, Canarygrass [10, 14]: 0
- Plant response rating, Canarygrass [10, 15]: 0
- Plant response rating, Canarygrass [10, 16]: 0

Structure (SMILES): O=C1NCC(c2ccccc2)C1C(=O)Nc1ccccc1F (racemic) [Compound 81]
- Plant response rating, Windgrass [8, 13]: 0
- Plant response rating, Windgrass [8, 14]: 0
- Plant response rating, Windgrass [8, 15]: 20
- Plant response rating, Windgrass [8, 16]: 20
- Plant response rating, Canarygrass [10, 13]: 0
- Plant response rating, Canarygrass [10, 14]: 0
- Plant response rating, Canarygrass [10, 15]: 0
- Plant response rating, Canarygrass [10, 16]: 0

Structure (SMILES): O=C1NCC(c2cccc(C(F)(F)F)c2)C1C(=O)Nc1ccc(F)cc1F (racemic) [Compound 207]
- Plant response rating, Rice, W.S. Ind ([11]; 125 g ai/ha): 0
- Plant response rating, Rice, W.S. Ind ([11]; 250 g ai/ha): 0
- Plant response rating, Rice, W.S. Ind ([11]; 500 g ai/ha): 10

Structure (SMILES): O=C1NCC(c2ccc(C(F)(F)F)c(F)c2)C1C(=O)Nc1cccc(F)c1F (racemic) [Compound 247]
- Plant response rating, Sedge, Umbrella ([1]; 125 g ai/ha): 0
- Plant response rating, Sedge, Umbrella ([1]; 250 g ai/ha): 0
- Plant response rating, Sedge, Umbrella ([1]; 500 g ai/ha): 0
- Plant response rating, Sedge, Umbrella ([1]; 1000 g ai/ha): 0
- Plant response rating, Sedge, Umbrella ([1]; 2000 g ai/ha): 0
- Plant response rating, Flatsedge, Rice ([2]; 125 g ai/ha): 0
- Plant response rating, Flatsedge, Rice ([2]; 250 g ai/ha): 0
- Plant response rating, Flatsedge, Rice ([2]; 500 g ai/ha): 0
- Plant response rating, Flatsedge, Rice ([2]; 1000 g ai/ha): 0
- Plant response rating, Flatsedge, Rice ([2]; 2000 g ai/ha): 35
- Plant response rating, Redstem ([3]; 125 g ai/ha): 0
- Plant response rating, Redstem ([3]; 250 g ai/ha): 0
- Plant response rating, Redstem ([3]; 500 g ai/ha): 0
- Plant response rating, Redstem ([3]; 1000 g ai/ha): 50
- Plant response rating, Redstem ([3]; 2000 g ai/ha): 55
- Plant response rating, Waterplantain ([12]; 125 g ai/ha): 80
- Plant response rating, Waterplantain ([12]; 250 g ai/ha): 85
- Plant response rating, Waterplantain ([12]; 500 g ai/ha): 90
- Plant response rating, Waterplantain ([12]; 1000 g ai/ha): 90
- Plant response rating, Waterplantain ([12]; 2000 g ai/ha): 90

Structure (SMILES): O=C1NCC(c2cccc(Br)c2)C1C(=O)Nc1ccccc1F (centres unmarked) [Compound 66]
- Plant response rating, Cocklebur ([6]; 16 g ai/ha): 0
- Plant response rating, Cocklebur ([6]; 31 g ai/ha): 0
- Plant response rating, Cocklebur ([6]; 62 g ai/ha): 0

Structure (SMILES): O=C1NCC(c2ccc(C(F)(F)F)cc2)C1C(=O)Nc1ccc(F)c(F)c1F (centres unmarked) [Compound 232]
- Plant response rating, Pigweed, Palmer ([7]; 31 g ai/ha): 0
- Plant response rating, Pigweed, Palmer ([7]; 62 g ai/ha): 0
- Plant response rating, Pigweed, Palmer ([7]; 125 g ai/ha): 80
- Plant response rating, Pigweed, Palmer ([7]; 250 g ai/ha): 65

Structure (SMILES): CN1CC(c2ccc(F)cc2)C(C(=O)Nc2cccc(F)c2F)C1=O (centres unmarked) [Compound 271]
- Plant response rating, Rice, W.S. Ind ([11]; 64 g ai/ha): 0
- Plant response rating, Rice, W.S. Ind ([11]; 125 g ai/ha): 15
- Plant response rating, Rice, W.S. Ind ([11]; 250 g ai/ha): 30
- Plant response rating, Rice, W.S. Ind ([11]; 500 g ai/ha): 60
